Results reported in patent US11867696B2, “Antigen-coupled immunoreagents” (CELL IDX, INC., priority 2015, dated 2024).
Where no end group is shown, it is not given here. [ ]: non-standard residue; d: D form. The star is where a group is joined. AOA = aminooxyacetyl (N-terminus modified with aminooxyacetamide), NOCC(=O)*; pY = N[C@@H](Cc1ccc(OP(=O)(O)O)cc1)C(=O)O

target: corresponding anti-peptide antibody; test: Dissociation constants (KD) between peptide and its corresponding antibody, ForteBio instrument; type: binding, rabbit
Source text: Goat anti-mouse and goat anti-rabbit antibodies were purchased from ImmunoReagents, Inc. (Raleigh, NC). Rabbit monoclonal anti-estrogen receptor (ER), anti-progesterone receptor (PR) and anti-HER2/neu receptor (HER2) antibodies were purchased from Epitomics, Inc. (Fremont, CA). Mouse anti-Ki67 was purchased from BD Biosciences, San Diego, CA Rabbit monoclonal anti-peptide antibodies against PEP1, PEP2, PEP3, PEP4, and PEP5 were obtained from AvantGen, Inc. (San Diego, CA).
The “AOA” group (aminooxyacetamide) was used to attach the peptide to the 4FB-modified primary antibody. Also shown in Table 1 are the dissociation constants (KD) between peptide and its corresponding antibody. These values were obtained using a ForteBio instrument (www.fortebio.com).

First: AOA-RPHFPQF-pY-SASGTA ({AOA}-RPHFPQF[pY]SASGTA) [PEP5]
Second: AOA-ETSGLQEQRNHLQGK-NH2 (HELM PEPTIDE1{[NOCC(=O)[*:2]].E.T.S.G.L.Q.E.Q.R.N.H.L.Q.G.K.[am]}$$$$V2.0; SMILES CC(C)C[C@H](NC(=O)CNC(=O)[C@H](CO)NC(=O)[C@@H](NC(=O)[C@H](CCC(=O)O)NC(=O)CON)[C@@H](C)O)C(=O)N[C@@H](CCC(N)=O)C(=O)N[C@@H](CCC(=O)O)C(=O)N[C@@H](CCC(N)=O)C(=O)N[C@@H](CCCNC(=N)N)C(=O)N[C@@H](CC(N)=O)C(=O)N[C@@H](Cc1c[nH]cn1)C(=O)N[C@@H](CC(C)C)C(=O)N[C@@H](CCC(N)=O)C(=O)NCC(=O)N[C@@H](CCCCN)C(N)=O) [PEP6]
The Kd of the first is 2-fold higher: 0.04 nM for the first, 0.02 nM for the second.

Compared with “AOA-DATNVGDEGGFAPNILENK ({AOA}-DATNVGDEGGFAPNILENK) [PEP3]”, “AOA-DITSDTSGDFR ({AOA}-DITSDTSGDFR) [PEP2]” is 1.8-fold higher in Kd: 0.09 nM for the first, 0.16 nM for the second.

“AOA-GLEPGQEYNVLLTAEK ({AOA}-GLEPGQEYNVLLTAEK) [PEP4]” and “AOA-LALQAQPVPDELVTK ({AOA}-LALQAQPVPDELVTK) [PEP1]” are the same in Kd: 0.09 nM for the first, 0.09 nM for the second.
